Consider one compound from patent US10401298B2, “Label-free detection of small and large molecule interactions, and activities in biological systems” (Arizona Board of Regents on behalf of Arizona State …, priority 2014, dated 2019).

For assay [1], the target named is human α4β2 nicotinic acetylcholine receptors (nAChRs) (Homo sapiens, UniProt P17787+P43681). The note with it: FIG. 5F, 100 nM Acetylcholine.
Description: The edge of a cell 5 can be manually defined from the optical image of the cell, but an imaging processing algorithm can automatically detect the cell edge, providing high throughput. After determining the cell edge, a region of interest (ROI) is selected at a location of the cell edge. The ROI can be a rectangular shape30 with the cell edge 32 passing through the center portion of the rectangle, dividing the rectangle into two equal halves, one half 34 is inside of the cell, and the second half 36 falls outside of the cell. We denote the intensities of the two halves of the differential image as A and B, and (A−B)/(A+B) is calculated and used to determine the movement of the cell edge at each location. […]
The relation between the cell edge movement and the measured differential image intensity change from one of the above differential optical detection method can be determined as below. […] The edge of one cell is manually chosen and the centroid (O) of the cell is determined (FIGS. 1B and 1C). […] The cell edge movement was calculated at every 10 starting from 0 (FIG. 1E). The ROI at a certain point of the cell edge (point A) is then shifted by different numbers of pixels outwards (perpendicular to the tangential line at point A), and the corresponding changes in the differential image intensity is determined from the image. […]
The subject of assay [2] is wild type SH-EP1 cells. As to the kind of experiment: Control: response of wild type SH-EP1 cells (no nAChRs expressed) to acetylcholine. The note with it: wild type SH-EP1 cells without nAChRs, 500 nM acetylcholine. The class given is binding, human. The source says: H are shown. The scale bar is 20 μm.
Curve 370 represents the measurements for cell G and lighter curve 370 represents the measurements for cell H.

Molecules are shown by their SMILES. Where two headings read alike, the source gives them in different places.

Sequence of human α4β2 nicotinic acetylcholine receptors (nAChRs) (P43681 29-627 limits assumed): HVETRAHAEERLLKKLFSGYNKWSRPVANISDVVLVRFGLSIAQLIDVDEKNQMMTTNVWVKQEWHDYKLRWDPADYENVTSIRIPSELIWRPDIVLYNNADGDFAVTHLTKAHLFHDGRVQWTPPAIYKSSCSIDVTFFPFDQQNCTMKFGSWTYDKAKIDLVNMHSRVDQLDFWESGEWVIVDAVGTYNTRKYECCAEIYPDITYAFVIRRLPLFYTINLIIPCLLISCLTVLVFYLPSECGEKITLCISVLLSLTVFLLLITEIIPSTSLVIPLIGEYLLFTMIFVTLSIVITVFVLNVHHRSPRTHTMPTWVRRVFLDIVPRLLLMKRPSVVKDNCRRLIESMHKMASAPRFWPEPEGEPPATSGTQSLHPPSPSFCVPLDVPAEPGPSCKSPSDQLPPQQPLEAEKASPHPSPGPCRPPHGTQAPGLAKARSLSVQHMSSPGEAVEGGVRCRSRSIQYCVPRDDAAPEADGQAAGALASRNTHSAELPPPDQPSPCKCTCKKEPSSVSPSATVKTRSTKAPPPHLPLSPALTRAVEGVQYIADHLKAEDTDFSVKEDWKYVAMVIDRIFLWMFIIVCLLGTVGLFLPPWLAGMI
Sequence of human α4β2 nicotinic acetylcholine receptors (nAChRs) (P17787 26-502): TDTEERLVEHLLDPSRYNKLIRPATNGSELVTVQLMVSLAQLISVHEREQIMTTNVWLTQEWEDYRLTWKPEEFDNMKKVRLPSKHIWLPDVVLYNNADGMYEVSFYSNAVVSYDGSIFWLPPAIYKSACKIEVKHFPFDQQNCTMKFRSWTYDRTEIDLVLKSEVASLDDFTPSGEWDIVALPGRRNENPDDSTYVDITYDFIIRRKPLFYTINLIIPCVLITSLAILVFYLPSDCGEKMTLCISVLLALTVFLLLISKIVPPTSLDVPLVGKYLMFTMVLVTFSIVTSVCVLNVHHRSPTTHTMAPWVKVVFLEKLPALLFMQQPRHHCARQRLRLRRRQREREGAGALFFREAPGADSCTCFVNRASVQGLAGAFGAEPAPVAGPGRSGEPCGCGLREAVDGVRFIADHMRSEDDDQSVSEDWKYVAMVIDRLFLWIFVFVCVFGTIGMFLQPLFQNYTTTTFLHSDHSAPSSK

On to `CC(=O)OCC[N+](C)(C)C.[Cl-]` [acetylcholine, acetylcholine chloride], for which the “amount of cell membrane deformation after acetylcholine binding” value in assay [1] (lower end of range, at region 592) was “about −40 nm”; in assay [1] (upper end of range, at arrow 590), “about 80 nm”. For the same compound, the “deformation in the cell membrane” value in assay [2] is on record as “no deformation”.
